Blank lines part the entries; values can stand above or below the molecule they belong to.
Legend:
Assay type in all cases: biochemical
[1] = target: human POLRMT (mitochondrial DNA-directed RNA polymerase) (Homo sapiens, UniProt O00411); assay: Inhibitor activity determination, mitochondrial RNA-polymerase, 384-well dose-response format; conditions: for IC50: 384-well, 8-point dilution series, 200 μM to 5 μM, 500 μM dNTPs; for Hill slope: four-parameter non-linear regression fit; for res. activity at highest conc.: highest assay conc. 200 μM; for res. activity at highest conc. / res. activity at lowest conc.: relative to positive control; for res. activity at lowest conc.: lower limit of 5 μM
Source text: The assay protocol largely corresponds to the setup described in example 1 (Determination of activity of mitochondrial RNA-polymerase using the same initiator and probes than in example 1). For determination of the activity, however, the reaction mix always contains the nucleotide triphosphate mix, to enforce potential competition between inhibitor compound and substrate. Negative control samples are set up such that no template DNA (pUC-LSP) is included in the reaction mixture.
Pre-diluted protein samples are mixed with the dNTP-mixture in a reaction buffer, containing 10 mM TrisHCl pH 7.5, 10 mM MgCl2, 40 mM NaCl, 2 mM GSH, 0.01% (w/v) Tween-20 and 0.1 mg/mL BSA, to yield final assay concentrations of 7.5 nM (POLRMT), 90 nM (TFAM), 20 nM (TFB2M) and 500 μM (dNTPs). 5 μL of this mix are dispensed, depending on the chosen microtiter plate format, using multi-channel pipettes or a Thermo Multidrop® dispenser into the wells of a microtiter plate and incubated at room-temperature (RT) for 10 minutes.
Equal amounts of DMSO without any compound are added to positive control samples. An incubation step at RT for 10 minutes is applied to allow binding of compounds.
The enzymatic reaction is started by the addition of 5 μL of a mix of template DNA (pUC-LSP) in reaction buffer to a final concentration of 0.5 nM. The following mixing, incubation and detection steps correspond to the steps described in example 1.

[2] = target: T1, human mitochondrial DNA-polymerase (POLG) (Homo sapiens, UniProt P54098); assay: Inhibitor activity determination using human mitochondrial DNA-polymerase, 384-well dose-response format
T1 sequence (P54098 1-1239): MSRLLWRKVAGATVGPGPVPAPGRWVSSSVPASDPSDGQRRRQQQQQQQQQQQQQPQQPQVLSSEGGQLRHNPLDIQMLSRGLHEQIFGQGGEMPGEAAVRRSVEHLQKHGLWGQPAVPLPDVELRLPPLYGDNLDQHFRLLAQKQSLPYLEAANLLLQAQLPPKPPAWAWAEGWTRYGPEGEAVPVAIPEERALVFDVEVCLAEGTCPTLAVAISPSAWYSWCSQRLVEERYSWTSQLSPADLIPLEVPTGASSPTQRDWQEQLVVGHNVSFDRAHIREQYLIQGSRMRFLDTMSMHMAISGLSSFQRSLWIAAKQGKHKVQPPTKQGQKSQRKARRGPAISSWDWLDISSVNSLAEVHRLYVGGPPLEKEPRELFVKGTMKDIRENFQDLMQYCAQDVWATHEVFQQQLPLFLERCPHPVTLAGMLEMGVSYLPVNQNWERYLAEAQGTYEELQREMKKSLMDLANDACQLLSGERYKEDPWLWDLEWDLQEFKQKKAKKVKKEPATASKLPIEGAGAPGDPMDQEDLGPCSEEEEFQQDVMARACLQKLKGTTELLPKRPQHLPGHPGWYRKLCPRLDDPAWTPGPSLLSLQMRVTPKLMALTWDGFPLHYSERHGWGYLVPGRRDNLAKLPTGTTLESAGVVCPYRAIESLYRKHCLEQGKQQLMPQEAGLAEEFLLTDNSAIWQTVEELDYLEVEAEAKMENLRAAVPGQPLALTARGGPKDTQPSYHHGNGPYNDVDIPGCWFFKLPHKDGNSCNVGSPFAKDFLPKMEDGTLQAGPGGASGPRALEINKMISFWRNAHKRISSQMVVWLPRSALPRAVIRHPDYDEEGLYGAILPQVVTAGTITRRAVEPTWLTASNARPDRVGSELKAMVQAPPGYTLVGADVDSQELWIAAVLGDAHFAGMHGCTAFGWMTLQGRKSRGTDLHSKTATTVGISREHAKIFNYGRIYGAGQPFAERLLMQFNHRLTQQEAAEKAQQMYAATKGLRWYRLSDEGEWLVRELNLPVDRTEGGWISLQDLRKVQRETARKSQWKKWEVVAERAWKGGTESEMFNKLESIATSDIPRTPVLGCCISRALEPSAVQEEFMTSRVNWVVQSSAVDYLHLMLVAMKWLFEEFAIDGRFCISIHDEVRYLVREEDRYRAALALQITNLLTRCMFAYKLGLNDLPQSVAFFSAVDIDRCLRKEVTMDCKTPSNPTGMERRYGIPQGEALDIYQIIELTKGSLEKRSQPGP
T1 sequence (Q9UHN1 1-485 partner): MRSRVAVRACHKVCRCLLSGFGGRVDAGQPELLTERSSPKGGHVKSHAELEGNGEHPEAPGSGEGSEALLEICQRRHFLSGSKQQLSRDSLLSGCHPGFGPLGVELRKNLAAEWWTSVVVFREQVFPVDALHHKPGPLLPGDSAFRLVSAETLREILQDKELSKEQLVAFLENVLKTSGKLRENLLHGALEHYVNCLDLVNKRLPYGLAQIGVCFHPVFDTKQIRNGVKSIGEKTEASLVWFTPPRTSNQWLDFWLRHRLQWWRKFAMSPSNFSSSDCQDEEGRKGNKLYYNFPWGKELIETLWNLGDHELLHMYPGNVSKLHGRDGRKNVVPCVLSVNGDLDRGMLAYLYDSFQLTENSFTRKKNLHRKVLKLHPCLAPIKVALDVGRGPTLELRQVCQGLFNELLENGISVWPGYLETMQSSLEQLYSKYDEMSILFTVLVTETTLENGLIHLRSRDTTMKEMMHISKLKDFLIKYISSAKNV
Source text: The assay protocol largely corresponds to the setup described in example 1 (Determination of activity of mitochondrial RNA-polymerase using the same initiator and probes than in example 1). For determination of the activity of the mitochondrial replication, however, the two-subunit complex of the mitochondrial DNA-polymerase (POLG, NM_002693.2, NM_007215.3), the […] TWINKLE (NM_021830.4) and mitochondrial single-strand binding protein (SSBP1, NM_001256510.1) are used. Also, the reaction mix always contains the substrate nucleotide mix, to enforce potential competition between inhibitor compound and substrate.
For DNA-replication the template is generated using a circular, single-stranded DNA formed from pBlueskript SK+. To this circular, ssDNA, a primer with 42-nucleotide poly-T is annealed to form a fork structure. To make dsDNA, the primer is elongated with KOD polymerase, which synthesizes DNA around the entire circle, until again it reaches the primer. At this point DNA-synthesis stops and a double-stranded DNA template of about 3000 bp with an artificial replication fork is formed.
For activity determination, negative control samples are set up such that no template DNA is included in the assay mixture. Assay components are mixed in a buffer containing 25 mM TrisHCl pH 8.0, 5 mM MgCl2, 2 mM GSH, and 0.1 mg/mL BSA, to yield final assay concentrations of 30 nM POLG, 15 nM TWINKLE, 20 nM SSBP1, 250 μM dNTPs, 4 mM ATP as well as the two DNA-probes at 3 nM concentration each.
5 μL of this mix are dispensed, depending on the chosen microtiter plate format, using multi-channel pipettes or a Thermo Multidrop® dispenser into the wells of a microtiter plate and incubated at room-temperature (RT) for 10 minutes.
Chemical compounds under scrutiny in the assay are applied using contact-free acoustic droplet-dispensing (Labcyte Echo®) from 10 mM compound stocks (in 100% DMSO) in an appropriate 8-point dilution series to ensure accurate fitting of the resulting activity data (i.e. upper and lower asymptote reached). Equal amounts of DMSO without any compound are added to positive control samples. An incubation step at RT for 10 minutes is applied to allow binding of compounds.
The enzymatic reaction is started by the addition of 5 μL of a mix template DNA in reaction buffer to a final concentration of 5 nM. Following incubation for 1 h at 37° C., the reaction is stopped by addition of a detection mix, containing 3 nM streptavidin-coupled Eu-cryptate pre-incubated with an excess of an unspecific random oligonucleotide, in 20 mM Tris-HCl pH 8.0, 400 mM NaCl and 50 mM EDTA. HTRF-signals are measured following over-night incubation at room-temperature. […]

[3] = target: mitochondrial RNA-polymerase (POLRMT) (Homo sapiens, UniProt O00411); assay: Activity of mitochondrial RNA-polymerase with and without TEFM (in vitro transcription, FRET detection); conditions: TEFM 100 nM; product formation quenched after 2 h
Description: FIG. 8: is displaying the result of a comparative study of the effect of adding TEFM to the in vitro transcription reaction, as described in example 6. Two transcription reactions were set up either with or without the addition of TEFM (100 nM) and product formation quenched after 2 h. The specific FRET signal of the reaction without TEFM was used as a reference and normalized to 100%, while for the reaction including TEFM a signal increase of around 18% (±10%) was measured under the chosen conditions.
To enhance the enzymatic turnover and, thus, specific signal intensity of the mitochondrial in vitro transcription reaction, the mitochondrial transcription elongation factor (TEFM, NP_078959.3.) can be added to the assay reagent mixture.
The general workflow of the assay and composition of assay reagents are described in Posse et al (Nucl. Acids Res. 2015). A linearized pUC18 plasmid comprising the human mitochondrial light-strand promotor sequence (LSP) is used as transcription plasmid.
Adaptations made to the original protocol relate to the different detection method applied and correspond to the set-up described in example 1.

human POLRMT (mitochondrial DNA-directed RNA polymerase), sequence (O00411 42-1230): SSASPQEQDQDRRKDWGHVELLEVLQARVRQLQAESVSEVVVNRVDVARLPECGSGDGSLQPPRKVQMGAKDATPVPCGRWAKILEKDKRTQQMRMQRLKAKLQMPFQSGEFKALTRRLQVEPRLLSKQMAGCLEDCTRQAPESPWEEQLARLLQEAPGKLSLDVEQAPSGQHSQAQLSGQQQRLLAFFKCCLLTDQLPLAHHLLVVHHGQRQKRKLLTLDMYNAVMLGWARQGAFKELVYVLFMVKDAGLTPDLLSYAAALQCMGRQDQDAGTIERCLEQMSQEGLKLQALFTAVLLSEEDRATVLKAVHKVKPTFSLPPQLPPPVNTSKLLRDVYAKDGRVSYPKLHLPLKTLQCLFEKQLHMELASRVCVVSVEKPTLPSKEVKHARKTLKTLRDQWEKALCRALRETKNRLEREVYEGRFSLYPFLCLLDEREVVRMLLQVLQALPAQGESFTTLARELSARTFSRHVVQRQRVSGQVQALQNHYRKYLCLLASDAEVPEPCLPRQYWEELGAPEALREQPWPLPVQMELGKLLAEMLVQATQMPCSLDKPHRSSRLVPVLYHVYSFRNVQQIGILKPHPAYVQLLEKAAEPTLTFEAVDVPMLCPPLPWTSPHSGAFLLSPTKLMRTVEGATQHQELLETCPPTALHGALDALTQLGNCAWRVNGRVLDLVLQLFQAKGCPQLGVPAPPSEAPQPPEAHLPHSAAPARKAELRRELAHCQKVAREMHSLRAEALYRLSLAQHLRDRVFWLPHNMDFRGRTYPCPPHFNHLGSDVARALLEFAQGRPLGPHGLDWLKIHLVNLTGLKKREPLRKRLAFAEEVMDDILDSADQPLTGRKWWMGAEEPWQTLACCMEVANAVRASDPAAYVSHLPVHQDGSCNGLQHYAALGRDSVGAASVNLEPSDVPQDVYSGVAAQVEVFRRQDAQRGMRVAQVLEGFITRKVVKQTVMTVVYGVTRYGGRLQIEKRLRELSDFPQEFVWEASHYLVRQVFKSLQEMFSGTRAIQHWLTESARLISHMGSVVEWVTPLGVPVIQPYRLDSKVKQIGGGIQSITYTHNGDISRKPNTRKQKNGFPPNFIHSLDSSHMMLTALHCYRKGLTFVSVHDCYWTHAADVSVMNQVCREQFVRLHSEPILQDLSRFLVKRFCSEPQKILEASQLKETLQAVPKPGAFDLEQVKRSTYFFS
mitochondrial RNA-polymerase (POLRMT), sequence (O00411 42-1230): as above

- IC50 [1]: 84.5 µM
- Hill slope [1]: −0.85
- res. activity at highest conc. [1]: 8.6%
- res. activity at lowest conc. [1]: 102%
Molecule: 2′methyl/OH-O-UTP

- IC50 [1]: 73.4 µM
- Hill slope [1]: −2.15
- res. activity at highest conc. [1]: 46.9%
- res. activity at lowest conc. [1]: 88.32%
Molecule: C[C@@]1(F)[C@H](O)[C@@H](COP(=O)(O)OP(=O)(O)OP(=O)(O)O)O[C@H]1n1cnc2c(=O)[nH]c(N)nc21 [2′methyl/F-GTP]

- Hill slope [1]: −2.05
- res. activity at highest conc. [1]: 65.5%
- res. activity at lowest conc. [1]: 96.5%
Molecule: C[C@@]1(O)[C@H](O)[C@@H](COP(=O)(O)OP(=O)(O)OP(=O)(O)O)O[C@H]1n1cnc2c(=O)[nH]c(N)nc21 [2′methyl/OH-GTP]

- IC50 ([2]; 384-well, 200 μM to 5 μM, 250 μM dNTPs): 54.1 µM
- Hill slope ([2]; four-parameter non-linear regression fit): −0.9462
- res. activity at highest conc. ([2]; highest assay conc. 200 μM): 22.6%
- res. activity at lowest conc. ([2]; lower limit of 5 μM): 92.79%
Molecule: Cc1cn([C@H]2C[C@H](O)[C@@H](COP(=O)(O)OP(=O)(O)OP(=O)(O)O)O2)c(=O)[nH]c1=S [4-Thiothymidine-5′-Triphosphate]

- signal increase of specific FRET signal versus reaction without TEFM (100%) [3]: around 18%
B1: TEFM: mitochondrial transcription elongation factor (TEFM, NP_078959.3) (protein, UniProt Q96QE5 36-360, looked up)
Transcription elongation …: KSTTPKKITPNVTFCDENAKEPENALDKLFSSEQQASILHVLNTASTKELEAFRLLRGRRSINIVEHRENFGPFQNLESLMNVPLFKYKSTVQVCNSILCPKTGREKRKSPENRFLRKLLKPDIERERLKAVNSIISIVFGTRRIAWAHLDRKLTVLDWQQSDRWSLMRGIYSSSVYLEEISSIISKMPKADFYVLEKTGLSIQNSSLFPILLHFHIMEAMLYALLNKTFAQDGQHQVLSMNRNAVGKHFELMIGDSRTSGKELVKQFLFDSILKADPRVFFPSDKIVHYRQMFLSTELQRVEELYDSLLQAIAFYELAVFDSQP

— patent publication US10883137B2, “Method to detect activity of a polymerase” (MAX-PLANCK-GESELLSCHAFT ZUR FÖRDERUNG DER WISSENSCHAFTEN …, priority 2015, dated 2021)
